Source: ChEMBL document CHEMBL1201862, “PubChem BioAssay data set” (2004)
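A five-concentration, 48-hour dose response in 96-well plates underlies each endpoint, interpolated linearly between surrounding concentrations. GI50: concentration for 50% inhibition of growth.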 Active and inactive are the calls of the source. No stated cut-off is given here; in the data, active = GI50 up to about 1.1 µM and inactive = higher.

Assays:
Assay in all cases: NCI-60 cell line screen, 48 h
[1] = system: SF-539
[2] = system: ACHN
[3] = system: RXF 393
[4] = system: M14
[5] = system: HT-29
[6] = system: COLO 205
[7] = system: SN12C
[8] = system: MDA-MB-231
[9] = system: SK-MEL-5
[10] = system: NCI-H460
[11] = system: Malme-3M
[12] = system: U-251
[13] = system: OVCAR-8
[14] = system: BT-549
[15] = system: EKVX
[16] = system: NCI/ADR-RES
[17] = system: UO-31
[18] = system: K562
[19] = system: MCF7
[20] = system: HOP-92

In the case of CC(C)(C)NC(NC(C)(C)C)=C(C(Cl)=C(Cl)Cl)[N+](=O)[O-], the GI50 [1] is reported as > 100 µM (inactive), the GI50 [2] is reported as > 100 µM (inactive) and the GI50 [3] is reported as > 100 µM (inactive). For the same compound, the GI50 [4] was > 100 µM (inactive), the GI50 [5] was > 100 µM (inactive) and the GI50 [6] was > 100 µM (inactive). For the same compound, the GI50 [7] was > 100 µM (inactive), the GI50 [8] was > 100 µM (inactive) and the GI50 [9] was > 100 µM (inactive). For the same compound, the GI50 [10] was > 100 µM (inactive), the GI50 [11] was > 100 µM (inactive) and the GI50 [12] was > 100 µM (inactive). The GI50 [13] was > 100 µM (inactive), the GI50 [14] was > 100 µM (inactive) and the GI50 [15] was > 100 µM (inactive). For the same compound, the GI50 [16] was > 100 µM (inactive), the GI50 [17] was 42.7 µM (inactive) and the GI50 [18] was > 100 µM (inactive). For the same compound, the GI50 [19] was > 100 µM (inactive).
With CN1C(NCCO)=NS(=O)(=O)c2ccccc21 the GI50 [1] was > 100 µM (inactive), the GI50 [2] was > 100 µM (inactive) and the GI50 [3] was > 100 µM (inactive). For the same compound, the GI50 [4] was > 100 µM (inactive), the GI50 [5] was > 100 µM (inactive) and the GI50 [6] was > 100 µM (inactive). For the same compound, the GI50 [7] was > 100 µM (inactive), the GI50 [8] was > 100 µM (inactive) and the GI50 [9] was > 100 µM (inactive). The GI50 [20] was > 100 µM (inactive), the GI50 [10] was > 100 µM (inactive) and the GI50 [12] was > 100 µM (inactive). The GI50 [13] was > 100 µM (inactive), the GI50 [14] was > 100 µM (inactive) and the GI50 [15] was > 100 µM (inactive). For the same compound, the GI50 [16] was > 100 µM (inactive), the GI50 [17] was > 100 µM (inactive) and the GI50 [18] was > 100 µM (inactive). The GI50 [19] was > 100 µM (inactive).
With COc1ccc(CCNC(=O)CCCCCO)cc1OC the GI50 [1] was > 100 µM (inactive), the GI50 [2] was > 100 µM (inactive) and the GI50 [3] was > 100 µM (inactive). The GI50 [4] was > 100 µM (inactive), the GI50 [5] was > 100 µM (inactive) and the GI50 [6] was > 100 µM (inactive). The GI50 [7] was > 100 µM (inactive), the GI50 [8] was > 100 µM (inactive) and the GI50 [9] was > 100 µM (inactive). The GI50 [20] was > 100 µM (inactive), the GI50 [10] was > 100 µM (inactive) and the GI50 [12] was > 100 µM (inactive). For the same compound, the GI50 [13] was > 100 µM (inactive), the GI50 [14] was > 100 µM (inactive) and the GI50 [15] was > 100 µM (inactive). For the same compound, the GI50 [16] was > 100 µM (inactive), the GI50 [17] was > 100 µM (inactive) and the GI50 [18] was > 100 µM (inactive). The GI50 [19] was > 100 µM (inactive).
In the case of COc1ccccc1NC(=S)N/N=C/c1c(C)n(C)n(-c2ccccc2)c1=O, the GI50 [1] is reported as 49.9 µM (inactive), the GI50 [2] is reported as > 100 µM (inactive) and the GI50 [3] is reported as 34.9 µM (inactive). For the same compound, the GI50 [4] was 61.8 µM (inactive), the GI50 [5] was > 100 µM (inactive) and the GI50 [6] was > 100 µM (inactive). For the same compound, the GI50 [8] was > 100 µM (inactive), the GI50 [9] was > 100 µM (inactive) and the GI50 [20] was 43.6 µM (inactive). The GI50 [10] was > 100 µM (inactive), the GI50 [12] was > 100 µM (inactive) and the GI50 [13] was 56.9 µM (inactive). The GI50 [14] was > 100 µM (inactive), the GI50 [15] was > 100 µM (inactive) and the GI50 [16] was 21.1 µM (inactive). For the same compound, the GI50 [17] was > 100 µM (inactive), the GI50 [18] was > 100 µM (inactive) and the GI50 [19] was > 100 µM (inactive).
With COc1cc(C=C(c2ccc(N(C)C)cc2)c2ccc(N(C)C)cc2)c2ccccc2c1OC the GI50 [2] was 49.4 µM (inactive), the GI50 [3] was > 100 µM (inactive) and the GI50 [4] was 63.1 µM (inactive). For the same compound, the GI50 [5] was 19 µM (inactive), the GI50 [6] was 55.7 µM (inactive) and the GI50 [7] was > 100 µM (inactive). For the same compound, the GI50 [8] was > 100 µM (inactive), the GI50 [9] was 51.9 µM (inactive) and the GI50 [20] was > 100 µM (inactive). For the same compound, the GI50 [10] was 96.2 µM (inactive), the GI50 [11] was 70.8 µM (inactive) and the GI50 [12] was 54 µM (inactive). For the same compound, the GI50 [13] was > 100 µM (inactive), the GI50 [14] was 35.2 µM (inactive) and the GI50 [15] was > 100 µM (inactive). The GI50 [16] was 23.4 µM (inactive), the GI50 [17] was > 100 µM (inactive) and the GI50 [18] was 17.5 µM (inactive). The GI50 [19] was 26.2 µM (inactive).
In the case of O=C(/C=C/c1ccc(OCc2ccccc2)cc1)NCc1ccc(C(=O)NCCc2ccccc2)cc1, the GI50 [1] is reported as > 100 µM (inactive), the GI50 [2] is reported as > 100 µM (inactive) and the GI50 [3] is reported as 64.1 µM (inactive). The GI50 [4] was > 100 µM (inactive), the GI50 [5] was > 100 µM (inactive) and the GI50 [6] was > 100 µM (inactive). The GI50 [7] was > 100 µM (inactive), the GI50 [8] was > 100 µM (inactive) and the GI50 [9] was > 100 µM (inactive). The GI50 [20] was > 100 µM (inactive), the GI50 [10] was > 100 µM (inactive) and the GI50 [11] was > 100 µM (inactive). The GI50 [12] was > 100 µM (inactive), the GI50 [13] was > 100 µM (inactive) and the GI50 [14] was > 100 µM (inactive). For the same compound, the GI50 [15] was 23.3 µM (inactive), the GI50 [16] was > 100 µM (inactive) and the GI50 [17] was > 100 µM (inactive). The GI50 [19] was > 100 µM (inactive).
For COc1ccc(OC)c(CC(=O)c2ccc(O)c(C(=O)NCCc3ccc(F)cc3)c2)c1, the GI50 [2] was 10.5 µM (inactive), the GI50 [3] was 1.09 µM (active) and the GI50 [4] was 2.28 µM (inactive). The GI50 [5] was 9.86 µM (inactive), the GI50 [6] was 16.9 µM (inactive) and the GI50 [8] was 4.74 µM (inactive). The GI50 [9] was 1.73 µM (inactive), the GI50 [20] was 10.8 µM (inactive) and the GI50 [10] was 3.85 µM (inactive). The GI50 [11] was 2.2 µM (inactive), the GI50 [12] was 3.6 µM (inactive) and the GI50 [13] was 4.23 µM (inactive). For the same compound, the GI50 [14] was 12 µM (inactive), the GI50 [15] was 7.13 µM (inactive) and the GI50 [16] was 2.21 µM (inactive). For the same compound, the GI50 [17] was 4.76 µM (inactive), the GI50 [18] was 3.81 µM (inactive) and the GI50 [19] was 2.99 µM (inactive).
